Reference: paper PMC5773532, “Crystal structure of an assembly intermediate of respiratory Complex II” (Nature Communications, 2018)

T1: Escherichia coli quinol:fumarate reductase flavoprotein subunit FrdA (isolated subunit) (E. coli, UniProt P00363 1-602, covalent FAD on H44 (8α-N(3)-histidyl linkage))
T1 sequence (looked up): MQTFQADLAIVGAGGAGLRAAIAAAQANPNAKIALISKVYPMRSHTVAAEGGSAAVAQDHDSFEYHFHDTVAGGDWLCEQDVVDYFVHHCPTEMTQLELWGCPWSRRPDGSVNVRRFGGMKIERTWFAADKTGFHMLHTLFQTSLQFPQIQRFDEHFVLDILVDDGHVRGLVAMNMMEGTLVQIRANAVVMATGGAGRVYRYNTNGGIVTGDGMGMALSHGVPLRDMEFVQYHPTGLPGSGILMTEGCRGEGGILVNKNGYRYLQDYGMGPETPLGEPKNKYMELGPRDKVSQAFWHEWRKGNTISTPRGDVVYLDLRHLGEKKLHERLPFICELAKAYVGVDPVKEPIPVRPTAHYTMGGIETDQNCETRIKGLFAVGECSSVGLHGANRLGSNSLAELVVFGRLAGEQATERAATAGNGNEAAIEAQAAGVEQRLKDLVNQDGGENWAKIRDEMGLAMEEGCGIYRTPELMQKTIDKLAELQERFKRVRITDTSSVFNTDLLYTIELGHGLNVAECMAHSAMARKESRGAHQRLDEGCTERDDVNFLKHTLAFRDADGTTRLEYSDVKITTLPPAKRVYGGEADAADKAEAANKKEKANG

T2: Escherichia coli succinate:quinone oxidoreductase flavoprotein subunit SdhA (isolated subunit) (E. coli, UniProt P0AC41 1-588)
T2 sequence (looked up): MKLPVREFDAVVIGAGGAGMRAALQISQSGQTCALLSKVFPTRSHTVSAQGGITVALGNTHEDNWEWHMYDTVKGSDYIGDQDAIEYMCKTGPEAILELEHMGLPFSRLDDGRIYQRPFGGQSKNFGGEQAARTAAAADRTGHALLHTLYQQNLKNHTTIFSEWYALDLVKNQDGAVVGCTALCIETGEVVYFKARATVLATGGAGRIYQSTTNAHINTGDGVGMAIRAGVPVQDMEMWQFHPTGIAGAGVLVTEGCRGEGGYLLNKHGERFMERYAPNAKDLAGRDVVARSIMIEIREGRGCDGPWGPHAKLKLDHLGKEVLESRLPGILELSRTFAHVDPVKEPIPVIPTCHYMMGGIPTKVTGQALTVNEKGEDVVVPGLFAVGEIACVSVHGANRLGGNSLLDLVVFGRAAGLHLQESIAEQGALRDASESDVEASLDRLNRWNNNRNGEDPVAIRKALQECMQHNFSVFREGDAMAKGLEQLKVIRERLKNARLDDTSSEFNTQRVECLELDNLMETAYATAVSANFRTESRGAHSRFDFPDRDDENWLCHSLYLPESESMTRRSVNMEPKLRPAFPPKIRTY

B1: Escherichia coli SdhE assembly factor (natural protein, E. coli)
chain: MDINNKARIHWACRRGMRELDISIMPFFEHEYDSLSDDEKRIFIRLLECDDPDLFNWLMNHGKPADAELEMMVRLIQTRNRERGPVAI
notes: SdhE, FAD assembly factor of E. coli Complex II, as used in optical titrations and kinetics; construct not described

What was measured:
[1] = target: T3, E. coli FrdA subunit (Escherichia coli, UniProt P00363); test: biochemical; format: binding
T3 construct: made in house; host or cells: E. coli RP-2 (RP437ΔfrdΔsdh)
Method: (§1) To interrogate dicarboxylate orientation in solution, we focused on oxaloacetate. When oxaloacetate is correctly oriented in the active site, it induces a characteristic spectrum (charge transfer band) attributed to π–π interactions between the oxygen of oxaloacetate and the isoalloxazine ring of FAD.
(§2) Studies were performed using a HP8453 UV/Vis spectrophotometer (Agilent, Santa Clara, CA). Binding experiments were carried out in 50 mM Bis-Tris-Propane (pH 8.0) at 25 °C. The isolated flavoproteins were added to a cuvette and titrated by the sequential addition of ligand solutions. The wavelength giving the highest amplitude change for each ligand was selected from the difference spectra for the analysis. The dissociation constant (Kd) values were obtained by the analysis of the changes in absorbance vs total ligand concentration. The Kd was determined according Eq. 1:1 ΔA=ΔAmaxET+LT+Kd-ET+LT+Kd^2-4ETLT/2ET where ET is a total protein concentration, LT is a total ligand concentration, ΔA and ΔAmax are the absorbance changes at a given and saturation ligand concentration. The protein concentration used for FrdA, SdhA, and quinol:fumarate reductase (QFR) were in a range of 7 to 9 µM. […]

[2] = target: E. coli SdhA subunit (Escherichia coli, UniProt P0AC41); test: Optical difference spectroscopy, ligand binding to isolated SdhA subunit; settings: read-out: Kd^malonate
Method: as §1, §2

[3] = target: T4, FrdA+SdhE (Escherichia coli, UniProt P00363); test: Optical difference spectroscopy, dicarboxylate binding to FrdA in the presence of SdhE
T4 construct: made in house; host or cells: FrdA: E. coli RP-2; SdhE for this assay: not described
Method: (§3) If this mechanistic proposal for covalent flavinylation is correct, we would anticipate that the FrdA-SdhE assembly intermediate would bind with reasonable affinity to biologically relevant dicarboxylates. […] Thus, the shifted architecture of SdhE-bound FrdA maintains dicarboxylate binding, supporting our mechanism.
(§4) Studies were performed using a HP8453 UV/Vis spectrophotometer (Agilent, Santa Clara, CA). […] The isolated flavoproteins were added to a cuvette and titrated by the sequential addition of ligand solutions. The wavelength giving the highest amplitude change for each ligand was selected from the difference spectra for the analysis. The dissociation constant (Kd) values were obtained by the analysis of the changes in absorbance vs total ligand concentration. The Kd was determined according Eq. 1:1 ΔA=ΔAmaxET+LT+Kd-ET+LT+Kd^2-4ETLT/2ET where ET is a total protein concentration, LT is a total ligand concentration, ΔA and ΔAmax are the absorbance changes at a given and saturation ligand concentration. The protein concentration used for FrdA, SdhA, and quinol:fumarate reductase (QFR) were in a range of 7 to 9 µM. […] The concentration of the isolated flavoprotein was determined in 0.5% SDS using the FAD extinction coefficient ε^445 = […].

[4] = target: SdhA+SdhE (Escherichia coli, UniProt P0AC41); test: Optical difference spectroscopy, dicarboxylate binding to SdhA in the presence of SdhE; settings: read-out: Kd^malonate
Method: as §3, §4

[5] = target: T1, Escherichia coli quinol:fumarate …; test: cell-based or functional assay
[6] = target: T2, Escherichia coli succinate:quinone …; test: cell-based or functional assay
[7] = target: T1, Escherichia coli quinol:fumarate …; test: optical difference spectroscopy (FAD absorbance titration); isolated flavoprotein (7 to 9 µM) in the cuvette titrated with SdhE; 50 mM Bis-Tris-Propane pH 8.0, 25 °C; 387–458 nm; fit of absorbance change against total ligand concentration; settings: both partners purified

Molecule | Kd [1] | Kd [2] | increase of Kd^malonate in the presence of SdhE ([3]; presence vs absence of SdhE, stated for both FrdA and SdhA subunits) | Kd ([3]; read-out: Kd^malonate) | Kd [4] | inhibition by SdhE of the succinate:DCIP reductase reaction of isolated FrdA (0.45 µM), pH 8.0, 30 °C; IC50^SdhE [5] | inhibition by SdhE of the succinate:DCIP reductase reaction of isolated SdhA, pH 8.0, 30 °C; IC50^SdhE [6] | Kd [7]
O=C(O)CC(=O)O [malonate] | 26 ± 3 µM | 11 ± 1 µM | 5- to 7 fold | 180 ± 20 µM | 60 ± 5 µM |  |  | 
B1 |  |  |  |  |  | 1.2 µM | 1.5 µM | 0.7 ± 0.1 µM
